The NIST ThermoML archive (doi:10.1016/j.tca.2013.11.010)
Numbers after ± are expanded uncertainties.

Legend:
[1] = for surface tension liquid-gas: Drop volume; for viscosity / speed of sound / mass density: 101.33 kPa; for viscosity / speed of sound / mass density / vapor or sublimation pressure: Liquid; for viscosity: Capillary tube (Ostwald / Ubbelohde) method; for speed of sound: Sing-around technique in a fixed-path interferometer; for mass density: Vibrating tube method; for vapor or sublimation pressure: Ebulliometric method (Recirculating still)
[2] = refractive index (Na D-line) (dimensionless); conditions: 101.33 kPa, Liquid, Standard Abbe refractometry
[3] = relative permittivity at various frequencies (dimensionless); conditions: 101.3 kPa, Liquid, Frequency=2 MHz, Parallel plate capacitor

CCCCOC(=O)C(C)O (centres undefined) [butyl 2-hydroxypropanoate]
Conditions | mass density, [1] [kg/m3] | refractive index, [2] | relative permittivity, [3] | speed of sound, [1] [m/s] | surface tension liquid-gas, [1] [mN/m] | vapor or sublimation pressure, [1] [kPa] | viscosity, [1] [mPa·s]
278.15 K | 996.896 ± 0.83 | – | 11.488 ± 0.12 | 1357.2 ± 2.3 | 30.07 ± 0.34 | – | 6.496 ± 0.15
280.65 K | 994.466 ± 0.83 | – | 11.323 ± 0.11 | 1348.2 ± 2.3 | 29.86 ± 0.34 | – | 5.873 ± 0.13
283.15 K | 992.023 ± 0.83 | 1.42578 ± 0.00054 | 11.164 ± 0.11 | 1339.1 ± 2.3 | 29.65 ± 0.34 | – | 5.333 ± 0.12
285.65 K | 989.578 ± 0.82 | 1.42472 ± 0.00054 | 11.046 ± 0.11 | 1330.1 ± 2.3 | 29.42 ± 0.33 | – | 4.86 ± 0.11
288.15 K | 987.126 ± 0.82 | 1.4237 ± 0.00054 | 10.912 ± 0.11 | 1321.2 ± 2.3 | 29.14 ± 0.33 | – | 4.446 ± 0.1
290.65 K | 984.671 ± 0.82 | 1.42259 ± 0.00054 | 10.769 ± 0.11 | 1312.2 ± 2.3 | 28.93 ± 0.33 | – | 4.077 ± 0.093
293.15 K | 982.212 ± 0.82 | 1.4215 ± 0.00054 | 10.593 ± 0.11 | 1303.2 ± 2.3 | 28.72 ± 0.33 | – | 3.753 ± 0.086
295.65 K | 979.75 ± 0.81 | 1.42038 ± 0.00054 | 10.428 ± 0.1 | 1294.1 ± 2.3 | 28.38 ± 0.32 | – | 3.466 ± 0.08
298.15 K | 977.283 ± 0.81 | 1.41928 ± 0.00054 | 10.298 ± 0.1 | 1285 ± 2.3 | 28.15 ± 0.32 | – | 3.207 ± 0.074
300.65 K | 974.813 ± 0.81 | 1.41815 ± 0.00054 | 10.158 ± 0.1 | 1276 ± 2.3 | 27.87 ± 0.32 | – | 2.978 ± 0.068
303.15 K | 972.337 ± 0.81 | 1.41703 ± 0.00054 | 10.024 ± 0.1 | 1266.9 ± 2.3 | 27.64 ± 0.32 | 0.102 ± 0.1 | 2.773 ± 0.064
305.65 K | 969.859 ± 0.8 | 1.4159 ± 0.00054 | 9.87 ± 0.099 | 1257.8 ± 2.3 | 27.38 ± 0.31 | – | 2.588 ± 0.059
308.15 K | 967.374 ± 0.8 | 1.41477 ± 0.00054 | 9.695 ± 0.097 | 1248.8 ± 2.3 | 27.16 ± 0.31 | 0.149 ± 0.1 | 2.423 ± 0.056
310.65 K | 964.888 ± 0.8 | 1.41366 ± 0.00054 | 9.583 ± 0.096 | 1239.8 ± 2.3 | 26.92 ± 0.31 | – | 2.272 ± 0.052
313.15 K | 962.397 ± 0.79 | 1.41252 ± 0.00054 | 9.411 ± 0.094 | 1230.8 ± 2.3 | 26.68 ± 0.31 | 0.201 ± 0.1 | 2.134 ± 0.049
315.65 K | 959.903 ± 0.79 | 1.41139 ± 0.00054 | 9.273 ± 0.093 | 1221.7 ± 2.3 | 26.42 ± 0.3 | – | 2.011 ± 0.046
318.15 K | 957.407 ± 0.79 | 1.41026 ± 0.00054 | 9.165 ± 0.092 | 1212.8 ± 2.3 | 26.1 ± 0.3 | 0.273 ± 0.1 | 1.897 ± 0.044
320.65 K | 954.908 ± 0.79 | 1.4091 ± 0.00054 | 9.002 ± 0.09 | 1203.8 ± 2.3 | 25.89 ± 0.3 | – | 1.793 ± 0.041
323.15 K | 952.408 ± 0.78 | 1.40797 ± 0.00054 | 8.844 ± 0.088 | 1194.9 ± 2.3 | 25.7 ± 0.3 | 0.371 ± 0.1 | 1.695 ± 0.039
325.65 K | 949.904 ± 0.78 | 1.40682 ± 0.00054 | 8.699 ± 0.087 | 1185.9 ± 2.3 | 25.43 ± 0.29 | – | 1.607 ± 0.037
328.15 K | 947.397 ± 0.78 | 1.40572 ± 0.00054 | 8.545 ± 0.085 | 1177 ± 2.3 | 25.14 ± 0.29 | 0.511 ± 0.1 | 1.526 ± 0.035
330.65 K | 944.885 ± 0.77 | 1.40441 ± 0.00054 | 8.418 ± 0.084 | 1168 ± 2.3 | 24.92 ± 0.29 | – | 1.45 ± 0.033
333.15 K | 942.369 ± 0.77 | 1.40341 ± 0.00054 | 8.286 ± 0.083 | 1159.1 ± 2.3 | 24.67 ± 0.29 | 0.679 ± 0.1 | 1.379 ± 0.032
335.65 K | 939.848 ± 0.77 | 1.40226 ± 0.00054 | 8.164 ± 0.082 | 1150.3 ± 2.3 | 24.41 ± 0.28 | – | 1.315 ± 0.03
338.15 K | 937.324 ± 0.77 | 1.40114 ± 0.00054 | 8.047 ± 0.08 | 1141.5 ± 2.3 | 24.16 ± 0.28 | 0.899 ± 0.1 | 1.257 ± 0.029
343.15 K | – | – | – | – | – | 1.192 ± 0.1 | –
348.15 K | – | – | – | – | – | 1.541 ± 0.1 | –
353.15 K | – | – | – | – | – | 1.979 ± 0.1 | –
358.15 K | – | – | – | – | – | 2.502 ± 0.1 | –
363.15 K | – | – | – | – | – | 3.224 ± 0.1 | –
368.15 K | – | – | – | – | – | 4.057 ± 0.1 | –
373.15 K | – | – | – | – | – | 5.075 ± 0.1 | –
378.15 K | – | – | – | – | – | 6.271 ± 0.1 | –
383.15 K | – | – | – | – | – | 7.753 ± 0.1 | –
388.15 K | – | – | – | – | – | 9.531 ± 0.1 | –
393.15 K | – | – | – | – | – | 11.64 ± 0.1 | –
398.15 K | – | – | – | – | – | 14.12 ± 0.1 | –
403.15 K | – | – | – | – | – | 17 ± 0.11 | –
408.15 K | – | – | – | – | – | 20.43 ± 0.11 | –
413.15 K | – | – | – | – | – | 24.39 ± 0.11 | –
418.15 K | – | – | – | – | – | 29.2 ± 0.12 | –
423.15 K | – | – | – | – | – | 34.6 ± 0.12 | –
428.15 K | – | – | – | – | – | 40.78 ± 0.13 | –
433.15 K | – | – | – | – | – | 47.9 ± 0.14 | –
438.15 K | – | – | – | – | – | 55.97 ± 0.15 | –
443.15 K | – | – | – | – | – | 65.3 ± 0.17 | –
448.15 K | – | – | – | – | – | 75.81 ± 0.19 | –
453.15 K | – | – | – | – | – | 87.7 ± 0.21 | –
